Reference: US20060211705A1, “'N-(2-chloro-6-methylphenyl)-2-[[6-[4-(2-hydroxyethyl)-1-piperazinyl]-2-methyl-4-pyrimidinyl]amino]-5-thiazolecarboxamides metabolites” (priority 2005, published 2006)

Experiment: Radioactive metabolites in plasma, urine and feces after single oral dose of [14C] compound (I) to humans
Assay type: in vivo, human
Conditions: for Metabolites in Feces (0-168 hr), Human, % Dose / Metabolites in Feces (0-168 hr), Human, % Rad / Metabolites in Urine (0-168 hr), Human, % Dose / Metabolites in Urine (0-168 hr), Human, % Rad: oral 100-mg; for Metabolites in Feces (0-168 hr), Human, % Dose / Metabolites in Feces (0-168 hr), Human, % Rad: pooled fecal extracts 0-168 hr; for Metabolites in Urine (0-168 hr), Human, % Dose / Metabolites in Urine (0-168 hr), Human, % Rad: pooled urine 0-168 hr; for % Distribution of radioactive metabolites in pooled plasma, Human (2 h): oral 100-mg [14C] compound (I), plasma 2 h
Experimental: Plasma samples were segregated by collection time and equal volumes of individual plasma samples at a given time point were combined for biotransformation profiling.
The C-14 label was on the carbon-2 of the thiazole ring.
HPLC was performed on an Agilent 1100™ system equipped with binary pumps, autoinjector, and a column heater. A Phenomenex Synergy Polar-RP® column (4.6×250 mm, 5 micron) was used for metabolite separation. All HPLC analyses were performed at 1 mL/min flow rate at 35° C. The HPLC mobile phase consisted of (A) water with 0.1% formic acid and (B) acetonitrile with 0.1% formic acid.
Each fraction of column eluent was evaporated to dryness on a Savant Speed-Vac (Savant Instruments Inc., Holbrook, N.Y.) and counted for radioactivity with a Packard Top Count® microplate scintillation analyzer (Packard Biosciences, Downers Grove, Ill.).
The volumes of pooled plasma processed for HPLC analysis for rat, monkey and human ranged between 1.5 and 8.0 mL. Pooled plasma samples were extracted with methanol/acetonitrile (1:1) at a ratio of 2 volumes solvent to 1 volume of plasma. The mixtures were vortex mixed, sonicated for 5 min, and centrifuged at 3500 rpm for 10 min. The supernatants were transferred into new tubes. The remaining pellets were extracted two more times with 3 mL of methanol/acetonitrile (1:1). The supernatants were combined and evaporated to dryness in a Savant Speed-Vac (Savant Instruments, Inc., Holbrook, N.Y.). The residue was reconstituted into 0.35 to 0.45 mL of 30% acetonitrile in water, vortex mixed and centrifuged at 13000 rpm for 5 min (American Scientific Products Biofuge A centrifuge, Heraeus Sepatech GmbH, Germany). The supernatant was injected onto the HPLC for profiling. Aliquots of the reconstituted samples (30 μl) were also counted on the liquid scintillation counter (LSC) to determine the recovery of radioactivity.
The pooled monkey and human urine samples (3-5 mL) were extracted with 2 volumes of acetonitrile/acetone (1:1). The mixtures were vortex mixed, sonicated and centrifuged at 3500 rpm for 10 min. The supernatants were evaporated to dryness. The residue was suspended in 0.3-0.5 mL of 30% acetonitrile in water and centrifuged at 13000 rpm for 5 min. Aliquots of the supernatants were injected onto the HPLC or analyzed by LSC for radioactivity recovery. Pooled urine samples from BDC monkeys and rats were centrifuged at 13000 rpm for 10 min and injected onto the HPLC for profiling without further treatment.
The amount of fecal homogenate used for analysis was 0.20, 0.19 and 0.51 g for rat, monkey and human, respectively. Each pooled fecal homogenate was extracted by addition of 3 volumes of acetonitrile/methanol (1:1) to 1 volume of fecal homogenate and mixed on a vortex mixer. The mixture was sonicated for 5 min and then centrifuged at 3000 rpm for 10 min. The supernatants were removed and saved. The extraction was repeated two additional times and the supernatants were combined and evaporated to dryness on a Savant Speed-Vac. […] An aliquot of the supernatant was injected onto the HPLC or analyzed by LSC for radioactivity recovery.
The LC/MS system used for analysis of plasma, urine, bile, and fecal samples consisted of an Agilent 1100™ HPLC system connected to a Finnigan LCQ-DecaXP mass spectrometer. Samples were analyzed using positive electrospray ionization. The capillary temperature used for analysis was 320° C., and the nitrogen gas flow rate, spray current, and voltages were adjusted to give maximum sensitivity. The HPLC conditions were described in section 3.3.1.
Counts per min (CPM) were determined on a Packard TopCount NXT microplate scintillation and luminescence counter. For each injection, the average CPM value (2-4 CPM) obtained from fractions between 2-3 min (column void) in the chromatogram was subtracted from the CPM value of each fraction. Biotransformation profiles were prepared by plotting the background subtracted CPM values against time-after-injection.

SMILES	Metabolites in Feces (0-168 hr), Human, % Dose	Metabolites in Feces (0-168 hr), Human, % Rad	Metabolites in Urine (0-168 hr), Human, % Dose	Metabolites in Urine (0-168 hr), Human, % Rad	% Distribution of radioactive metabolites in pooled plasma, Human (2 h)
Cc1nc(Nc2ncc(C(=O)Nc3c(C)cccc3Cl)s2)cc(N2CCNCC2)n1 [M4 (II)]	2.6%	3.1%	0.05%	1.3%	–
Cc1nc(Nc2ncc(C(=O)Nc3c(C)cc(O)cc3Cl)s2)cc(N2CCN(CCO)CC2)n1 [M20 (V)]	31.2%	36.6%	0.2%	4.1%	12.5%
Cc1nc(Nc2ncc(C(=O)Nc3c(C)cccc3Cl)s2)cc(N2CCN(CC(=O)O)CC2)n1 [M6 (IV), 2-(4-(6-(5-((2-Chloro-6-methylphenyl)carbamoyl)thiazol-2-ylamino)-2-methylpyrimidin-4-yl)piperazin-1-yl)acetic acid]	8.9%	10.4%	0.05%	1.3%	3.6%
Cc1nc(Nc2ncc(C(=O)Nc3c(Cl)cccc3CO)s2)cc(N2CCN(CCO)CC2)n1 [M24 (VI), N-(2-chloro-6-(hydroxymethyl)phenyl)-2-(6-(4-(2-hydroxyethyl)piperazin-1-yl)-2-methylpyrimidin-4-ylamino)thiazole-5-carboxamide]	4.0%	4.7%	0.2%	6.0%	3.1%
Cc1nc(Nc2ncc(C(=O)Nc3c(C)cccc3Cl)s2)cc(N2CC[N+]([O-])(CCO)CC2)n1 [M5 (III)]	–	–	1.4%	39.8%	4.5%
Cc1nc(Nc2ncc(C(=O)Nc3c(C)cccc3Cl)s2)cc(N2CCN(CCO)CC2)n1 [Parent (I), N-(2-Chloro-6-methylphenyl)-2-[[6-[4-(2-hydroxyethyl)-1-piperazinyl]-2-methyl-4-pyrimidinyl]amino]-5-thiazolecarboxamide]	19.1%	22.4%	0.1%	3.6%	25.5%
